The IC50 is the concentration that gives 50% inhibition.

Data set [1] addresses T1, Serine/threonine-protein phosphatase 5 (Homo sapiens) (UniProt P53041).
T1 sequence (whole entry): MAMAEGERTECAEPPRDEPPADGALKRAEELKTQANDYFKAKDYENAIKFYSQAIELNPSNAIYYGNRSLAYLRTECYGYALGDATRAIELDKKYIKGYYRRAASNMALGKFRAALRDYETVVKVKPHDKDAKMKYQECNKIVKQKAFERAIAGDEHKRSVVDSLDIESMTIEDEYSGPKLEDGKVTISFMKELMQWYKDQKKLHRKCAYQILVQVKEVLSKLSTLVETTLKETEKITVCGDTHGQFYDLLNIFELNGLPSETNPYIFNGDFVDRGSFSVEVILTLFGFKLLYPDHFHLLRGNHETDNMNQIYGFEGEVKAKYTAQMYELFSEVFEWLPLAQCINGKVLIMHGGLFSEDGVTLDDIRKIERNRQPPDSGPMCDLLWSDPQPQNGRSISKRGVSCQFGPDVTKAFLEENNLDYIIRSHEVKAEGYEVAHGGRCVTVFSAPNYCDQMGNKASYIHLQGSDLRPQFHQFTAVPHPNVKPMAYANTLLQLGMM
The data set can be described thus: Activation of His-tagged human PP5 extracted from Escherichia coli BL21 using pNPP as substrate assessed as fold increase in phosphatase activity at 50 uM incubated for 30 mins by spectrophotometric analysis.

Data set [2] addresses T1, Serine/threonine-protein phosphatase 5 (Homo sapiens). The data set can be described thus: Activation of His-tagged human PP5 extracted from Escherichia coli BL21 using pNPP as substrate assessed as increase in phosphatase activity incubated for 30 mins by spectrophotometric analysis. The note with it: filed as activator.
For data set [3] the target is unchanged. The data set can be described thus: Activation of His-tagged human PP5 extracted from Escherichia coli BL21 using pNPP as substrate assessed as fold change in maximum activation upto 300 uM incubated for 30 mins by spectrophotometric analysis. As to conditions: filed as activator.
The target is the same in data set [4]. The data set can be described thus: Activation of His-tagged human PP5 extracted from Escherichia coli BL21 using pNPP as substrate assessed as fold increase in phosphatase activity at 200 uM incubated for 30 mins by spectrophotometric analysis. As to conditions: filed as activator.
The target of data set [5] is T2, Serine/threonine-protein phosphatase 5 (Homo sapiens, UniProt P53041).
T2 sequence (P53041 whole entry): T1 sequence (whole entry)
The data set can be described thus: Inhibition of human PP5 phosphatase domain extracted from Escherichia coli BL21 using pNPP as substrate incubated for 30 mins by spectrophotometric analysis.

Data set [6] deals with T2, Serine/threonine-protein phosphatase 5. The data set can be described thus: Inhibition of DDO-3733 preincubated human PP5 phosphatase domain extracted from Escherichia coli BL21 using pNPP as substrate incubated for 30 mins by spectrophotometric analysis.
The test system of data set [7] is HCT-116. The data set can be described thus: Antiproliferative activity against human HCT-116 cells assessed as inhibition of cell proliferation incubated for 72 hrs by CCK8 assay. It counts as functional, cell-based. The note with it: HCT-116, 72 h.
Another data set deals with SW-620. The data set can be described thus: Antiproliferative activity against human SW620 cells assessed as inhibition of cell proliferation incubated for 72 hrs by CCK8 assay. It counts as functional, cell-based. The note with it: SW-620, 72 h.
Data set [8] concerns HCT-116. The data set can be described thus: Heat shock toxicity in human HCT-116 cells assessed as increase in HSP27 protein expression at 3 to 100 nM incubated for 24 hrs by Western blot analysis. It counts as cell-based. As to conditions: hct-116, 24 h, 0.1 µM, dose 3-100 nM. (In general: A western blot detects proteins with antibodies after separation by electrophoresis.)

Data set [9] has as its system HCT-116. The data set can be described thus: Heat shock toxicity in human HCT-116 cells assessed as increase in HSP40 protein expression at 3 to 100 nM incubated for 24 hrs by Western blot analysis. It counts as cell-based. The note with it: hct-116, 24 h, 0.1 µM, dose 3-100 nM.
Data set [10] has as its system HCT-116. The data set can be described thus: Heat shock toxicity in human HCT-116 cells assessed as increase in HSP70 protein expression at 3 to 100 nM incubated for 24 hrs by Western blot analysis. It counts as cell-based. The note with it: hct-116, 24 h, 0.1 µM, dose 3-100 nM.
Data set [11] has as its system HCT-116. The data set can be described thus: Heat shock toxicity in human HCT-116 cells assessed as increase in HSP27 mRNA expression at 10 to 100 nM incubated for 24 hrs by qRT-PCR analysis. It counts as cell-based. As to conditions: hct-116, 24 h, 0.1 µM, dose 10-100 nM. On the technique in general: Quantitative PCR measures a nucleic acid by following its amplification.

Data set [12] concerns HCT-116. The data set can be described thus: Heat shock toxicity in human HCT-116 cells assessed as increase in HSP40 mRNA expression at 10 to 100 nM incubated for 24 hrs by qRT-PCR analysis. It counts as cell-based. As to conditions: hct-116, 24 h, 0.1 µM, dose 10-100 nM.
Data set [13] has as its system HCT-116. The data set can be described thus: Heat shock toxicity in human HCT-116 cells assessed as increase in HSP70 mRNA expression at 10 to 100 nM incubated for 24 hrs by qRT-PCR analysis. It counts as cell-based. The note with it: hct-116, 24 h, 0.1 µM, dose 10-100 nM.
Data set [14] in a line: Toxicity in BALB/c nude mouse xenografted with human HCT-116 cells assessed as body weight loss at 20 mg/kg, ip administered every other day for 14 days. As to conditions: in vivo, 336 h, time 14 day. It counts as organism-based.

Bounds are passed on as bounds.

On to `COc1cccc2oc(=N)c(C(N)=S)cc12`, for which the fold change (FC) in data set [1] is under 1.5. As to `N=c1oc2ccc(O)cc2cc1C(N)=S`, the fold change (FC) in [1] (filed as activator) came out at 1.9. Consider `N=c1oc2c(F)cc(F)cc2cc1C(N)=O`, for which the fold change (FC) in data set [1] was under 1.5. Take `N=c1oc2ccc(F)cc2cc1C(N)=S`: the fold change (FC) in data set [1] is under 1.5. `N=c1oc2cc(F)ccc2cc1C(N)=S`: the fold change (FC) in [1] (filed as activator) came to 1.7.

Regarding `N=c1oc2c(F)cc(F)cc2cc1C(=S)NC=O`, the fold change (FC) in [1] (filed as activator) came to 2.1. Same read-out and setting: in the case of `N=c1oc2c(F)ccc(F)c2cc1C(N)=S` it was 1.8. With `N=c1oc2cc(Br)ccc2cc1C(N)=S`, the Activity entry in [2] is “Dose-Dependent Effect”. Further, the fold change (FC) turned out to be 2.1 in data set [1] (filed as activator) and 4 in data set [3]. For the compound `COc1ccc2oc(=N)c(C(N)=S)cc2c1`, the fold change (FC) worked out at 3.4 in data set [4] and 1.9 in data set [1] (filed as activator). Further, the Activity result in [2] was “Dose-Dependent Effect”. Turning to `N=c1oc2cc(F)cc(F)c2cc1C(N)=O`, the fold change (FC) in [1] was under 1.5.

Regarding `COc1cccc2cc(C(N)=S)c(=N)oc12`, the fold change (FC) in data set [1] is under 1.5.

Turning to `N=c1oc2cc(O)ccc2cc1C(N)=S`, the fold change (FC) in [1] (filed as activator) was 2.4. For `N=c1oc2cc([N+](=O)[O-])ccc2cc1C(N)=S`, the fold change (FC) in [1] was under 1.5.

With `CO/N=c1/oc2c(F)cc(F)cc2cc1C(N)=S`, in data set [1], the fold change (FC) was under 1.5. Regarding `N=c1oc2cc(F)c(F)cc2cc1C(N)=S`, the fold change (FC) in data set [1] (filed as activator) is 1.7. For the compound `C/N=c1/oc2c(F)cc(F)cc2cc1C(N)=S`, the fold change (FC) in data set [1] is under 1.5. Consider `N=c1oc2ccccc2cc1C(N)=S`, for which, in data set [1] (filed as activator), the fold change (FC) stood at 1.8. For `N=c1oc2cccc(Br)c2cc1C(N)=S`, the fold change (FC) in data set [1] was under 1.5. Regarding `N=c1oc2c(Br)cc(Br)cc2cc1C(N)=S`, in data set [1] (filed as activator), the fold change (FC) was determined as 2.6. On to `N=c1oc2ccc3ccccc3c2cc1C(N)=S`, for which, in [1] (filed as activator), the fold change (FC) stood at 1.6. As for `CN1CCN(C(=O)C2C(C(=O)O)[C@H]3CC[C@@H]2O3)CC1` (stereo partly drawn) [LB-100], the 50% inhibitory concentration (IC50) stood at 22.1 µM in data set [5] and 21.1 µM in data set [6]. As to `CC(C)c1cc(C(=O)N2Cc3ccc(CN4CCN(C)CC4)cc3C2)c(O)cc1O` [ONALESPIB], the 50% inhibitory concentration (IC50) was 0.0785 µM in the data set with HCT-116 [7] and 0.122 µM in the data set with SW-620. In addition, the Activity entry in the data set with HCT-116 [8], with HCT-116 [9], in the data set on HCT-116 [10], in the data set with HCT-116 [11], in the data set on HCT-116 [12] and in the data set with HCT-116 [13] was “Toxic” in each case. Moreover, the Activity entry in data set [14] is on record as “Non-Toxic”. Consider `N=c1oc2c(Cl)cc(Cl)cc2cc1C(N)=S`, for which the fold change (FC) in [1] is under 1.5. Turning to `COc1cc(Br)cc2cc(C(N)=S)c(=N)oc12`, the fold change (FC) in data set [1] (filed as activator) was 2.1.

Regarding `N=c1oc2c(F)cccc2cc1C(N)=S`, the fold change (FC) in data set [1] is under 1.5. Take `N=c1oc2cccc(F)c2cc1C(N)=S`: the fold change (FC) in data set [1] (filed as activator) turned out to be 1.6. With `NC(=S)C1=Cc2cc(F)cc(F)c2OC1N` (stereo not drawn), in data set [1] (filed as activator), the fold change (FC) amounted to 1.8. `COc1ccc2cc(C(N)=S)c(=N)oc2c1`: the fold change (FC) in data set [1] (filed as activator) was 1.6. With `Cc1ccc2oc(=N)c(C(N)=S)cc2c1`, the fold change (FC) in [1] (filed as activator) is 1.6. Regarding `N=c1oc2c(F)cc(F)cc2cc1C(N)=S`, the fold change (FC) in data set [1] (filed as activator) was 2.1.

The values above are taken from ChEMBL document CHEMBL5579878, “Allosteric Activation of Protein Phosphatase 5 with Small Molecules” (J Med Chem, 2024).
